Measured values as given in patent US12312332B2 (Merck Sharp & Dohme LLC., priority 2019, dated 2025).

Biological target: T1, human OX2R (Homo sapiens, UniProt O43614)
T1 construct: expressed in transfected cells; host or cells: Chinese hamster ovary (CHO) cells, kept under G418 selection
T1 sequence (O43614 1-444): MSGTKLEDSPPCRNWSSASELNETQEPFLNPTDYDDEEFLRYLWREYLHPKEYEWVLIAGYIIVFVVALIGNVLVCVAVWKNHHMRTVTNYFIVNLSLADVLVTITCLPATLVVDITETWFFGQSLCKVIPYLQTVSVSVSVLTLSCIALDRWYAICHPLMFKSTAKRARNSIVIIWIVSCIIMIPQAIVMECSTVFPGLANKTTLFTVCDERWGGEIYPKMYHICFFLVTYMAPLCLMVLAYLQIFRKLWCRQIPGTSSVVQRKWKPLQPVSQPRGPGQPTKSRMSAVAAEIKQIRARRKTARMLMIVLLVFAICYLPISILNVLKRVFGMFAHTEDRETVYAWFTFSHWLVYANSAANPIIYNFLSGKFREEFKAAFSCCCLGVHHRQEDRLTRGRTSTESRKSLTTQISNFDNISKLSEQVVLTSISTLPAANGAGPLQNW
Test: IPOne (IP-One) orexin receptor agonist assay in CHO cells expressing human OX2R
Type: cell-based
Details: for EC50: CHO cells expressing human OX2R, IP-One detection, 2 hours incubation, four parameter logistic fit, read-out: OX2R Potency, EC50; for % max agonist effect (Emax): human OX2R, percentage of sample raw value/mean max effect (reference compound at 1 uM with 100% activity)

Compound | EC50 [nM] | % max agonist effect (Emax) [%]
COc1ccnc(N2CC[C@H](NS(C)(=O)=O)[C@@H]2CO[C@H]2CC[C@@H](c3ccccc3)CC2)c1F [Example 115, N-((2R,3S)-1-(3-fluoro-4-methoxypyridin-2-yl)-2-((((CIS)-4-phenylcyclohexyl)oxy)methyl)pyrrolidin-3-yl)methanesulfonamide] | 2410 | 93.7
Cn1c(N2CC[C@H](NS(C)(=O)=O)[C@@H]2CO[C@H]2CC[C@@H](c3ccccc3)CC2)cccc1=O [Example 116, N-((2R,3S)-1-(1-methyl-6-oxo-1,6-dihydropyridin-2-yl)-2-((((CIS)-4-phenylcyclohexyl)oxy)methyl)pyrrolidin-3-yl)methanesulfonamide] | 393 | 99.6
CS(=O)(=O)N[C@H]1CCN(c2nccc(O)c2F)[C@H]1CO[C@H]1CC[C@@H](c2ccccc2)CC1 [Example 117, N-((2R,3S)-1-(3-fluoro-4-hydroxypyridin-2-yl)-2-((((CIS)-4-phenylcyclohexyl)oxy)methyl)pyrrolidin-3-yl)methanesulfonamide] | 0.58 | 100.7
Cn1ccc(N2CC[C@H](NS(C)(=O)=O)[C@@H]2CO[C@H]2CC[C@@H](c3ccccc3)CC2)cc1=O [Example 118, N-((2R,3S)-1-(1-methyl-2-oxo-1,2-dihydropyridin-4-yl)-2-((((CIS)-4-phenylcyclohexyl)oxy)methyl)pyrrolidin-3-yl)methanesulfonamide] | 33.2 | 100.2
COc1cnc(N2CC[C@H](NS(C)(=O)=O)[C@@H]2CO[C@H]2CC[C@@H](c3ccccc3)CC2)cc1O [Example 119, N-((2R,3S)-1-(4-hydroxy-5-methoxypyridin-2-yl)-2-((((CIS)-4-phenylcyclohexyl)oxy)methyl)pyrrolidin-3-yl)methanesulfonamide] | 35.8 | 101.8
CS(=O)(=O)N[C@H]1CCN(c2nccc(O)c2Cl)[C@H]1CO[C@H]1CC[C@@H](c2ccccc2)CC1 [Example 120, N-((2R,3S)-1-(3-chloro-4-hydroxypyridin-2-yl)-2-((((CIS)-4-phenylcyclohexyl)oxy)methyl)pyrrolidin-3-yl)methanesulfonamide] | 10.8 | 100.5
CS(=O)(=O)N[C@H]1CCN(c2cnccc2C(F)F)[C@H]1CO[C@H]1CC[C@@H](c2ccccc2)CC1 [Example 121, N-((2R,3S)-1-(4-(difluoromethyl)pyridin-3-yl)-2-((((CIS)-4-phenylcyclohexyl)oxy)methyl)pyrrolidin-3-yl)methanesulfonamide] | 16.9 | 101.1
CS(=O)(=O)N[C@H]1CCN(c2cnccc2O)[C@H]1CO[C@H]1CC[C@@H](c2ccccc2)CC1 [Example 122, N-((2R,3S)-1-(4-hydroxypyridin-3-yl)-2-((((CIS)-4-phenylcyclohexyl)oxy)methyl)pyrrolidin-3-yl)methanesulfonamide] | 38.3 | 101
CS(=O)(=O)N[C@H]1CCN(c2cnccc2OCc2ccccc2)[C@H]1CO[C@H]1CC[C@@H](c2ccccc2)CC1 [Example 123, N-((2R,3S)-1-(4-(benzyloxy)pyridin-3-yl)-2-((((CIS)-4-phenylcyclohexyl)oxy)methyl)pyrrolidin-3-yl)methanesulfonamide] | 755 | 97.6
CS(=O)(=O)N[C@H]1CCN(c2ncccc2C(F)F)[C@H]1CO[C@H]1CC[C@@H](c2ccccc2)CC1 [Example 124, N-((2R,3S)-1-(3-(difluoromethyl)pyridin-2-yl)-2-((((CIS)-4-phenylcyclohexyl)oxy)methyl)pyrrolidin-3-yl)methanesulfonamide] | 150 | 100.2
Cc1cccnc1N1CC[C@H](NS(C)(=O)=O)[C@@H]1CO[C@H]1CC[C@@H](c2ccccc2)CC1 [Example 125, N-((2R,3S)-1-(3-methylpyridin-2-yl)-2-((((CIS)-4-phenylcyclohexyl)oxy)methyl)pyrrolidin-3-yl)methanesulfonamide] | 59.2 | 100
CS(=O)(=O)N[C@H]1CCN(c2ncccc2C(F)(F)F)[C@H]1CO[C@H]1CC[C@@H](c2ccccc2)CC1 [Example 126, N-((2R,3S)-2-((((CIS)-4-phenylcyclohexyl)oxy)methyl)-1-(3-(trifluoromethyl)pyridin-2-yl)pyrrolidin-3-yl)methanesulfonamide] | 370 | 100
CS(=O)(=O)N[C@H]1CCN(c2ncccc2OC(F)(F)F)[C@H]1CO[C@H]1CC[C@@H](c2ccccc2)CC1 [Example 127] | 162 | 100.7
COc1cncc(N2CC[C@H](NS(C)(=O)=O)[C@@H]2CO[C@H]2CC[C@@H](c3ccccc3)CC2)c1C [Example 128, N-((2R,3S)-1-(5-methoxy-4-methylpyridin-3-yl)-2-((((CIS)-4-phenylcyclohexyl)oxy)methyl)pyrrolidin-3-yl)methanesulfonamide] | > 10000 | 50.4
CS(=O)(=O)N[C@H]1CCN(c2cc(F)cnc2O)[C@H]1CO[C@H]1CC[C@@H](c2ccccc2)CC1 [Example 129, N-((2R,3S)-1-(5-fluoro-2-hydroxypyridin-3-yl)-2-((((CIS)-4-phenylcyclohexyl)oxy)methyl)pyrrolidin-3-yl)methanesulfonamide] | 821 | 99.7
CS(=O)(=O)N[C@H]1CCN(c2ccc(C(F)(F)F)cn2)[C@H]1CO[C@H]1CC[C@@H](c2ccccc2)CC1 [Example 130, N-((2R,3S)-2-((((CIS)-4-phenylcyclohexyl)oxy)methyl)-1-(5-(trifluoromethyl)pyridin-2-yl)pyrrolidin-3-yl)methanesulfonamide] | 4000 | 70.8
CS(=O)(=O)N[C@H]1CCN(c2ncccc2F)[C@H]1CO[C@H]1CC[C@@H](c2ccccc2)CC1 [Example 131, N-((2R,3S)-1-(3-fluoropyridin-2-yl)-2-((((CIS)-4-phenylcyclohexyl)oxy)methyl)pyrrolidin-3-yl)methanesulfonamide] | 736 | 98.8
CS(=O)(=O)N[C@H]1CCN(c2ccc(C#N)cn2)[C@H]1CO[C@H]1CC[C@@H](c2ccccc2)CC1 [Example 132, N-((2R,3S)-1-(5-cyanopyridin-2-yl)-2-((((CIS)-4-phenylcyclohexyl)oxy)methyl)pyrrolidin-3-yl)methanesulfonamide] | > 10000 | 75.3
CS(=O)(=O)N[C@H]1CCN(c2cncc(C#N)c2)[C@H]1CO[C@H]1CC[C@@H](c2ccccc2)CC1 [Example 133, N-((2R,3S)-1-(5-cyanopyridin-3-yl)-2-((((CIS)-4-phenylcyclohexyl)oxy)methyl)pyrrolidin-3-yl)methanesulfonamide] | 993 | 100.3
CS(=O)(=O)N[C@H]1CCN(c2ccc[n+]([O-])c2)[C@H]1CO[C@H]1CC[C@@H](c2ccccc2)CC1 [Example 134] | 20.7 | 101.7
CS(=O)(=O)N[C@H]1CCN(c2ncccc2O)[C@H]1CO[C@H]1CC[C@@H](c2ccccc2)CC1 [Example 135, N-((2R,3S)-1-(3-hydroxypyridin-2-yl)-2-((((CIS)-4-phenylcyclohexyl)oxy)methyl)pyrrolidin-3-yl)methanesulfonamide] |  | 101.1
CS(=O)(=O)N[C@H]1CCN(c2ncccc2C#N)[C@H]1CO[C@H]1CC[C@@H](c2ccccc2)CC1 [Example 136, N-((2R,3S)-1-(3-cyanopyridin-2-yl)-2-((((CIS)-4-phenylcyclohexyl)oxy)methyl)pyrrolidin-3-yl)methanesulfonamide] | 164 | 100.6
CS(=O)(=O)N[C@H]1CCN(c2ncccc2O)[C@H]1CO[C@H]1CC[C@@H](c2ccccc2)CC1 [Example 137, N-((2R,3S)-1-(3-hydroxypyridin-2-yl)-2-((((CIS)-4-phenylcyclohexyl)oxy)methyl)pyrrolidin-3-yl)methanesulfonamide] |  | 100.5
CS(=O)(=O)N[C@H]1CCN(c2cc(C#N)ccn2)[C@H]1CO[C@H]1CC[C@@H](c2ccccc2)CC1 [Example 138, N-((2R,3S)-1-(4-cyanopyridin-2-yl)-2-((((CIS)-4-phenylcyclohexyl)oxy)methyl)pyrrolidin-3-yl)methanesulfonamide] | 72.1 | 99.8
CS(=O)(=O)N[C@H]1CCN(c2cccc(C#N)n2)[C@H]1CO[C@H]1CC[C@@H](c2ccccc2)CC1 [Example 139, N-((2R,3S)-1-(6-cyanopyridin-2-yl)-2-((((CIS)-4-phenylcyclohexyl)oxy)methyl)pyrrolidin-3-yl)methanesulfonamide] | 1400 | 68.5
CS(=O)(=O)N[C@H]1CCN(c2cc(OC(F)F)c(F)cn2)[C@H]1CO[C@H]1CC[C@@H](c2ccccc2)CC1 [Example 140, N-((2R,3S)-1-(4-(difluoromethoxy)-5-fluoropyridin-2-yl)-2-((((CIS)-4-phenylcyclohexyl)oxy)methyl)pyrrolidin-3-yl)methanesulfonamide] | 299 | 98.8
